The target in assay [1] is α1B (Cav2.2), β3 and α2δ subunits of the N-type calcium channel (stable HEK cell line) (Rattus norvegicus, UniProt Q02294). The experiment in a line: Calcium-dye indicator assay (FDSS, KCl depolarization). The conditions noted are these: calcium mobilization response to 50 mM KCl; six-point concentration-response. The format is cell-based. Here is the method:
A stable cell line (HEK parent) co-expressing the α1B (Cav2.2), β3 and α2δ subunits of the N-type calcium channel subunits was used. These cells were routinely grown as monolayers in low glucose-containing Dulbecco's Modified Eagle Medium supplemented with 10% FBS, 2 mM L-glutamine, 100 I.U./mL penicillin, 100 μg/mL streptomycin, 400 μg/mL G418 and 200 μg/mL Zeocin (split ratio=1:5). Cells were maintained in 5% CO2 at 37° C. Compounds of Formula (I) were prepared as 10 mM stocks in DMSO from neat compound, if available. Otherwise, the 5 or 10 mM DMSO stock solutions provided in-house were used.
Calcium mobilization responses to KCl depolarization were evaluated by measuring the intensity of calcium-mediated fluorescent signal in the presence of BD Calcium Assay Dye (BD Biosciences, Franklin Lakes, N.J., U.S.A.), utilizing a Functional Drug Screening System (FDSS) by Hamamatsu Corporation (Bridgewater, N.J., U.S.A.).
Twenty-four hours prior to assay, cells were seeded in clear-base poly-D-lysine coated 384-well plates (BD Biosciences) at a density of 5,000 cells per well in culture medium and grown overnight in 5% CO2 at 37° C. On the day of assay growth media were removed and cells were loaded with BD calcium assay dye (BD Biosciences) for 35 min at 37° C. under 5% CO2 and then for 25 min at room temperature. Utilizing the FDSS, cells were exposed to representative compounds of Formula (I) at varying concentrations and intracellular calcium was measured for 5 min prior to the addition of 50 mM KCl for an additional 3 min of measurement.
Maximal fluorescence intensity (FI) achieved upon addition of 50 mM KCl was exported from the FDSS software and further analyzed using GraphPad Prism 4 (Graph Pad Software Inc., CA, U.S.A.). Data were normalized to the maximum average counts from quadruplicate wells for each condition in the presence of 50 mM KCl and to the minimum average counts in the presence of buffer. Theoretical curves were generated using nonlinear regression curve-fitting analysis of either sigmoidal concentration-response or sigmoidal concentration-response (variable slope), and the IC50 values with the best-fit dose curve determined by GraphPad Prism were reported.

Assay [2] concerns Cav2.2 (N-type calcium channel; α1B, α2δ and β3 subunits stably expressed in HEK293 cells). Put plainly: Automated electrophysiology assay (QPatch-HT patch clamp). The format is cell-based. The note with it: 0.1 μM. Here is the method: The Cav2.2 (α1B) subunit (GenBank accession no. AAO53230; supplied by Lipscombe's laboratory at Brown University) was subcloned into pcDNA3.1, whereas the α2δ (M86621) and β3 (M88751) subunits were subcloned into pBudCE4.1 vectors. Stable cell lines expressing all three subunits were generated according to the following procedure: 1) HEK293 cells were transfected with α2δ−1/β3 expression constructs resulting in a stable cell line expressing α2δ−1 and β3 subunits that were selected under 200 μg/mL of Zeocin; 2) a stable cell line expressing α2δ−1/β3 subunits in high quantity as evidenced in its Western blots was isolated from the colony and purified; 3) this cell line was further transfected with Cav2.2 expression constructs, from which cells were subsequently selected under 400 μg/mL G418 and 200 μg/mL Zeocin; 4) these cells were clonally isolated, expanded and screened by Western blot analysis for expressing all three subunits
Cultures of cells stably expressing Cav2.2 were maintained at 37° C. in low glucose-containing Dulbecco's Modified Eagle medium (low glucose) under a 5% CO2 atmosphere. The medium was supplemented with 10% fetal bovine serum, 2 mM L-glutamine, 100 IU/mL penicillin, […] streptomycin, 400 μg/mL G418 and 200 μg/mL Zeocin.
High-throughput automated patch clamp system experiments were carried out using instruments (QPatch-HT) available from Sophion Biosciences, Inc. North Brunswick, N.J. Cells were grown in T175 flasks to 50%-90% confluence were enzymatically treated with Deatchin (Genlantis, San Diego, Calif., U.S.A.), centrifuged, rinsed and resuspended in 293 SFM II media (Life Technologies, Grand Island, N.Y., U.S.A.) supplemented with 25 mM HEPES (Sigma-Aldrich, St. Louis, Mo., U.S.A.) to a concentration of 2−3×10^6 cells/mL. Cells were added to automated cell preparation station on the QPatch-HT (Sophion Biosciences, North Brunswick, N.J., U.S.A.) and following a 10- to 30-min recovery period with gentle stirring, the assay protocol was initiated. During the automated cell preparation, cells were collected, centrifuged and resuspended in an extracellular (EC) solution containing 132 mM NaCl, 1.8 mM CaCl2, 5.4 mM KCl, 0.8 mM MgCl2, 10 mM glucose, and 10 mM HEPES (pH=7.4), adjusted with sucrose to 315 m0sm. The QPlate was primed with an intracellular solution containing 135 CsCl, 10 mM EGTA, 4 MgATP, 0.3 NaGTP, and 20 mM HEPES (pH=7.2), adjusted to approximately 290 m0sm with deionized water and the EC solution. Cells were added to the prepared QPlate wells by robotic pipettes of the QPatch-HT.
For cells determined to be in stable whole-cell patch clamp, the EC solution was replaced with a barium (Ba)/triethylammonium (TEA) solution containing 140 mM TEA-Cl, 10 mM BaCl2, 0.8 mM MgCl2, 10 mM glucose, and 10 mM HEPES (pH=7.4). High (40 mM) BaCl2 concentrations were made with adjustments of TEA-Cl (90 mM) to maintain the osmolarity. From a resting potential of −80 mV, a train of depolarizing pulses (15 pulses at 5 Hz, +20 mV) was delivered to the cell once every 30 sec for eight trains (4 min total), and the resulting currents were measured during a control period (no compound). This protocol was repeated for each subsequent addition of control buffer with or without compound (three periods total, each with four trains). The current generated in the 1st and 15th pulses of the last train of each period in the presence of each drug concentration was normalized to the current generated during the control period at the respective pulses (representing low- and high frequency stimulation, respectively). Data from both the second and third drug application period were analyzed for each cell. A final addition of Ba/TEA solution containing 60-100 uM CdCl2 was made to block all N-type current and “zero” the currents for each cell. A buffer/compound additions were made using a “spitting” feature of the QPatch-HT, which added three repretitions of 5 μL solution at the beginning of each recording period.

The structures appear in SMILES notation. pIC50: −log10 of the molar value.

Turning to `COc1ccccc1-n1nc(C2C[C@@H](C)O[C@H](C)C2)cc1-c1ccc(Cl)cc1` (relative stereo) [Compound 61, 5-(4-Chlorophenyl)-3-[(trans)-2,6-dimethyltetrahydro-2H-pyran-4-yl]-1-(2-methoxyphenyl)-1H-pyrazole], the pIC50 in assay [1] was 8.82. The “QPatch % Inhibition, High Freq” value in assay [2] (high frequency stimulation (15th pulse of 5 Hz train)) is recorded as 62%. In assay [2] (low frequency stimulation (1st pulse of train)), the “QPatch % Inhibition, Low Freq” value was 30%. Consider `COc1cc(OC)cc(-c2cc(C3CC(C)(C)OC(C)(C)C3)nn2-c2ccccc2OC)c1` [Compound 43, 5-(3,5-Dimethoxyphenyl)-1-(2-methoxyphenyl)-3-(2,2,6,6-tetramethyltetrahydro-2H-pyran-4-yl)-1H-pyrazole], for which the pIC50 in assay [1] was 7.24.

Turning to `COc1ccccc1-n1nc(C2CC(C)(C)OC(C)(C)C2)cc1C1=CCCC1` [Compound 37, 5-Cyclopent-1-en-1-yl-1-(2-methoxyphenyl)-3-(2,2,6,6-tetramethyltetrahydro-2H-pyran-4-yl)-1H-pyrazole], the pIC50 in assay [1] is 7.47.

With `COc1ccccc1-n1nc(C2CC(C)(C)OC(C)(C)C2)cc1-c1ccnc(C)c1` [Compound 33, 4-[1-(2-Methoxyphenyl)-3-(2,2,6,6-tetramethyltetrahydro-2H-pyran-4-yl)-1H-pyrazol-5-yl]-2-methylpyridine], in assay [1], the pIC50 was 7.09. Still for that read-out and setting: with `Clc1ccc(-c2cc(C3CCOCC3)nn2-c2ccccc2Cl)cc1` [Compound 74, 1-(2-Chlorophenyl)-5-(4-chlorophenyl)-3-(tetrahydro-2H-pyran-4-yl)-1H-pyrazole] the figure was 7.28; with `COc1ccccc1-n1nc(C2CC(C)(C)OC(C)(C)C2)cc1-c1ccncc1` [Compound 32, 4-[1-(2-Methoxyphenyl)-3-(2,2,6,6-tetramethyltetrahydro-2H-pyran-4-yl)-1H-pyrazol-5-yl]pyridine], 6.85; with `COc1ccccc1-n1nc(C2CC(C)(C)OC(C)(C)C2)cc1-c1ccc(OCCN(C)C)cc1` [Compound 82, 2-{4-[1-(2-Methoxyphenyl)-3-(2,2,6,6-tetramethyltetrahydro-2H-pyran-4-yl)-1H-pyrazol-5-yl]phenoxy}-N,N-dimethylethanamine], 6.11. Same read-out and setting: with `COc1ccccc1-n1nc(C2CC(C)(C)OC(C)(C)C2)cc1-c1ccc(N(C)C)cc1` [Compound 11, 4-[1-(2-Methoxyphenyl)-3-(2,2,6,6-tetramethyltetrahydro-2H-pyran-4-yl)-1H-pyrazol-5-yl]-N,N-dimethylaniline] the figure was 8.62.

Regarding `COc1cncc(-c2cc(C3CC(C)(C)OC(C)(C)C3)nn2-c2ccccc2OC)c1` [Compound 34, 3-Methoxy-5-[1-(2-methoxyphenyl)-3-(2,2,6,6-tetramethyltetrahydro-2H-pyran-4-yl)-1H-pyrazol-5-yl]-pyridine], the pIC50 in assay [1] is 6.92. Regarding `Clc1ccc(-c2cc(C3CCOCC3)nn2-c2c(Cl)cccc2Cl)cc1` [Compound 80, 5-(4-Chlorophenyl)-1-(2,6-dichlorophenyl)-3-(tetrahydro-2H-pyran-4-yl)-1H-pyrazole], the pIC50 in assay [1] was 6.70.

In the case of `COc1ccccc1-n1nc(C2CC(C)(C)OC(C)(C)C2)cc1-c1ccc(OCCn2ccnc2)cc1` [Compound 81, 5-{4-[2-(1H-Imidazol-1-yl)ethoxy]phenyl}-1-(2-methoxyphenyl)-3-(2,2,6,6-tetramethyltetrahydro-2H-pyran-4-yl)-1H-pyrazole], in assay [1], the negative-log IC50 (pIC50) is 6.40.

As to `CC(C)(C)Oc1ccccc1-n1nc(C2CC(C)(C)OC(C)(C)C2)cc1-c1ccc(Cl)cc1` [Compound 48, 1-(2-tert-Butoxyphenyl)-5-(4-chlorophenyl)-3-(2,2,6,6-tetramethyltetrahydro-2H-pyran-4-yl)-1H-pyrazole], the negative logarithm of the IC50 (pIC50) in assay [1] is 6.96. Same read-out and setting: the result for `COc1ccccc1-n1nc(C2CC(C)(C)OC(C)(C)C2)cc1-c1ccc2[nH]ccc2c1` [Compound 42, 5-[1-(2-Methoxyphenyl)-3-(2,2,6,6-tetramethyltetrahydro-2H-pyran-4-yl)-1H-pyrazol-5-yl]-1H-indole] reads 7.26; that for `COc1ccccc1-n1nc(C2CC(C)(C)OC(C)(C)C2)cc1-c1ccc2c(ccn2C)c1` [Compound 21, 5-[1-(2-Methoxyphenyl)-3-(2,2,6,6-tetramethyltetrahydro-2H-pyran-4-yl)-1H-pyrazol-5-yl]-1-methyl-1H-indole], 8.24; that for `COc1ccccc1-n1nc(C2CC(C)(C)OC(C)(C)C2)cc1-c1ccccc1NC(C)=O` [Compound 36, N-{2-[1-(2-Methoxyphenyl)-3-(2,2,6,6-tetramethyltetrahydro-2H-pyran-4-yl)-1H-pyrazol-5-yl]-phenyl}-acetamide], 6.84.

With `COc1ccc(-c2cc(C3CC(C)(C)OC(C)(C)C3)nn2-c2ccccc2OC)cc1OC` [Compound 29, 5-(3,4-Dimethoxyphenyl)-1-(2-methoxyphenyl)-3-(2,2,6,6-tetramethyltetrahydro-2H-pyran-4-yl)-1H-pyrazole], the pIC50 in assay [1] was 7.24. The same measure, in the same setting: the result for `COc1ccccc1-n1nc(C2CC(C)(C)OC(C)(C)C2)cc1-c1cccnc1` [Compound 45, 3-[1-(2-Methoxyphenyl)-3-(2,2,6,6-tetramethyltetrahydro-2H-pyran-4-yl)-1H-pyrazol-5-yl]-pyridine] reads 7.15; that for `COc1ccccc1-n1nc(C2CC(C)(C)OC(C)(C)C2)cc1-c1ccc(OC(C)C)cc1` [Compound 24, 1-(2-Methoxyphenyl)-5-[4-(1-methylethoxy)phenyl]-3-(2,2,6,6-tetramethyltetrahydro-2H-pyran-4-yl)-1H-pyrazole], 7.96.

(Values after patent US8901314B2, “Substituted pyrazoles as N-type calcium channel blockers” (Janssen Pharmaceutica NV, priority 2012, dated 2014).)
